Earlier results, collected in patent publication US8338346B2, “Perfume compositions comprising functional perfume components” (The Procter & Gamble Company, priority 2008, dated 2012).

What was measured:
[1] = odor detection threshold; approximate reported values
[2] = approximate reported values; unit inferred

Row | Vapor pressure [2] [mmHg] | SMILES | ODT [1] [ppb]
1 | – | C=C(C)C1CC=C(C)CC1 [D-Limonene, 1-methyl-4-isopropenyl-1-cyclohexene] | 204
2 | 0.05 | C=CC(C)(O)CCC=C(C)C (centres unmarked) [Linalool, 3-hydroxy-3,7-dimethyl-1,6 octadiene] | 22
3 | 0.11 | CC(=O)OCCCCCCC(C)C [Iso-Nonyl Acetate, iso-nonyl acetate] | 12
